# From US11123388B2, “Composition for preventing and treating inflammatory bowel disease” (GENUONE SCIENCES INC., priority 2015, dated 2021)
# Several values for one entry are separate records, joined by “and”; a condition that tells them apart may be missing. Equal entries are not always repeated.
# What was measured:
# [1] = tested on: U937 cell adhesion to the HT-29 intestinal epithelial cells; assay: Inhibition of monocyte (U937) adhesion to TNF-α-stimulated intestinal epithelial cells (HT-29); format: cell-based, human; details: 5-ASA 20 mM (positive control), TNF-α 100 ng/mL, 24 h
# Experimental: 3. Effect of Inhibiting Monocyte Adhesion Ability in Intestinal Epithelial Cells Human intestinal epithelial cell line HT-29 cells (American Type Culture Collections, Rockville, Mass., USA) and human monocyte cell line U937 cells (ATCC, Rockville, Mass., USA) were cultured in RPMI 1640 containing fetal bovine serum (FBS) and 1% penicillin/streptomycin, and the cell line was maintained under the environment of 95% air and 5% CO2 at 37° C. […] The HT-29 cells (2×10^6 cells/well), which were cultured in a 48-well plate for 24 hours, were simultaneously treated with a extract (100 μg/mL) while treating with TNF-α (100 ng/mL), and cultured for 24 hours. In particular, 20 mM 5-aminosalicylic acid (5-ASA) was used as the positive control. Then, HT-29 cells were co-cultured along with U937 cells (5×10^5 cells/well), which were labeled with BCECF/AM at 37° C. for 30 minutes. Unattached U937 cells were removed and washed twice with PBS. The HT-29 cells to which U937 cells were attached were dissolved using 0.1% Triton X-100 which was dissolved in 0.1 mol/L Tris. The fluorescence of these lysates was measured using the luminance at 485 nm and 520 nm using a microplate reader (TECAN, Gr, Austria).
# [2] = tested on: TNF-α production in LPS-treated macrophages; assay: Inhibition of LPS-induced TNF-α production in macrophages (ELISA); format: cell-based; details: Macrophage, LPS 1 μg/mL, read-out: Effect of inhibiting TNF-α (%)
# Experimental: 4. Effect of Inhibiting TNF-α Production The macrophages (American Type Culture Collections, Rockville, Mass., USA) cultured in a 24-well plate were pretreated with LPS (1 μg/mL) for 1 hour, treated with a extract (100 μg/mL), 20 mM 5-ASA (100 μg/mL) and 20 μM dexamethasone, and cultured for 24 hours, and the supernatant of cell was used for the experiment. First, capture antibody of TNF-α was added into a 96-well ELISA plate and allowed to react overnight. The plate was washed 6 times with 1×PBS (PBS-T) containing 0.05% Tween-20, and blocked with 1× assay diluent solution containing 2% BSA at room temperature for 1 hour. The plate was washed 6 times with 1×PBS-T and the supernatant or TNF-α standard protein was added thereto and allowed to react at room temperature for 2 hours. The plate was again was washed 6 times with 1×PBS-T, detection antibody was added thereto, and allowed to react at room temperature for 2 hours. The plate was again was washed 6 times with 1×PBS-T, avidin-HRP solution was added thereto, and allowed to react at room temperature for 30 minutes. […] With respect to the levels of reactions of the plate, the absorbance was measured at 450 nm using a microplate reader (TECAN, Gr, Austria).
# [3] = tested on: IL-6 production in LPS-treated macrophages; assay: Inhibition of LPS-induced IL-6 production in macrophages (ELISA); format: cell-based; details: LPS 1 μg/mL
# Experimental: 5. Effect of Inhibiting IL-6 Production The macrophages (American Type Culture Collections, Rockville, Mass., USA) cultured in a 24-well plate were pretreated with LPS (1 μg/mL) for 1 hour, treated with a extract (50 μg/mL), 20 mM 5-ASA (50 μg/mL) and 20 μM dexamethasone, and cultured for 24 hours, and the supernatant was used for the experiment. First, capture antibody of IL-6 was added into a 96-well ELISA plate and allowed to react overnight. The plate was washed 6 times with 1×PBS (PBS-T) containing 0.05% Tween-20, and blocked with 1× assay diluent solution containing 2% BSA at room temperature for 1 hour. […] The plate was again was washed 6 times with 1×PBS-T, detection antibody was added thereto, and allowed to react at room temperature for 2 hours. The plate was again was washed 6 times with 1×PBS-T, avidin-HRP solution was added thereto, and allowed to react at room temperature for 30 minutes. The plate was again was washed 6 times with 1×PBS-T, a TMB substrate solution was added thereto and allowed to react at room temperature for final 30 minutes, and a reaction stopping solution (1 M H3PO4) was added thereto to stop the reaction. With respect to the levels of reactions of the plate, the absorbance was measured at 450 nm using a microplate reader (TECAN, Gr, Austria).
# [4] = tested on: dextran sodium sulfate (DSS)-induced colitis in C57BL/6 female mice; assay: Amelioration of colitis in DSS animal model; format: in vivo; design: DAI (disease activity index): scale not given here; Colon Length: unit not given here
# Experimental: 7. Effect of Ameliorating Colitis in DSS Animal Model To construct an experimental model of inflammatory bowel disease, 6-week old C57BL/6 female mice (17 g to 19 g) were purchased from DBL Co., Ltd. (Eumseong, Korea), and the mice were given ad libitum access to solid feeds and water and allowed to adapt to a controlled environment with constant humidity (50%), constant temperature (22° C.), and 12-hour light-dark cycle for 1 week. […] The control drug (5-ASA) and extracts were dissolved in 0.5% carboxymethyl cellulose (CMC), and then orally administered once daily for 7 days along with 3% dextran sodium sulfate (DSS), and the normal control group and the colitis-induced group were orally administered with 0.5% CMC. The colitis-induced group, the control drug-treated group, and the extract-treated group were given ad libitum access to 3% DSS for 1 week, and the normal control group was given ad libitum access to water. Then, the mice were sacrificed on the 8th day, and each of their colons was excised from the cecum to the region immediately before the anus, and the length and external appearance of the excised colon were examined to determine the degree of weight loss, diarrhea, and […], and the results were scored according to the criteria.
# [5] = tested on: TNBS-induced Crohn's disease in ICR female mice; assay: Amelioration of Crohn's disease in TNBS animal model; format: in vivo
# Experimental: 8. Effect of Ameliorating Crohn's Disease in TNBS Animal Model To construct an experimental model of inflammatory bowel disease, 7-week old ICR female mice (25 g to 27 g) were purchased from DBL Co., Ltd. (Eumseong, Korea), and the mice were given ad libitum access to solid feeds and water and allowed to adapt to a controlled environment with constant humidity (50±10%), constant temperature (22±2° C.), and 12-hour light-dark cycle for 1 week. […] The mice were fasted for 24 hours before injection of TNBS. […] The control drug (5-ASA) and extracts were dissolved in 0.5% carboxymethyl cellulose (CMC), and orally administered once daily for 5 days. The normal control group and the colitis-induced group were orally administered with 0.5% CMC. After 5 days of oral administration, mice were fasted until the next day and sacrificed. Each of their colons was excised from the cecum to the region immediately before the anus, and the length and external appearance of the excised colon were examined to determine the degree of weight loss, constipation, and intestinal edema, and the results were scored according to the criteria.
# myeloperoxidase (MPO) = assay: Myeloperoxidase (MPO) activity in colon tissue, TNBS animal model; format: in vivo; details: TNBS mice, 200 mg/kg
# Experimental: 6. Effect of Inhibiting Oxidative Stress Through Measurement of Myeloperoxidase (MPO) Activity
# 200 μL of lysis buffer was added to 100 mg of colon tissue collected at the time of autopsy and homogenized and the supernatant obtained by centrifugation at 10,000 rpm for 20 minutes was used. First, capture antibody of MPO was added into a 96-well ELISA plate and allowed to react overnight. The plate was washed 6 times with 1×PBS (PBS-T) containing 0.05% Tween-20, and blocked with 1× assay diluent solution containing 2% BSA at room temperature for 1 hour. […] With respect to the levels of reactions of the plate, the absorbance was measured at 450 nm using a microplate reader (TECAN, Gr, Austria).
# To construct an experimental model of inflammatory bowel disease, 7-week old ICR female mice (25 g to 27 g) were purchased from DBL Co., Ltd. (Eumseong, Korea), and the mice were given ad libitum access to solid feeds and water and allowed to adapt to a controlled environment with constant humidity (50±10%), constant temperature (22±2° C.), and 12-hour light-dark cycle for 1 week. […] Each of their colons was excised from the cecum to the region immediately before the anus, and the length and external appearance of the excised colon were examined to determine the degree of weight loss, constipation, and intestinal edema, and the results were scored according to the criteria.
# [6] = tested on: NO production in HT-29 cells; assay: Inhibition of NO production in HT-29 cells (Griess); format: cell-based, human; details: 48 h
# Experimental: 2. Effect of Inhibition of NO Production Human intestinal epithelial cell line HT-29 cells (American Type Culture Collections, Rockville, Mass., USA) were cultured in Dulbecco's Modified Eagle's Medium (DMEM) along with 10% Fatal bovine serum (FBS), 1% Antibiotic-Antimycotic (GIBCO, Cat No. 15240-062) in 100 mm/60.1 cm^2 culture dish at 37° C., 5% CO2 conditions. […] The supernatant of cell was collected and used as a sample for the test. The test analysis was performed using the Total NO/Nitrite/Nitrate ELISA kit (R&D systems, Cat. #KGE001) according to the manufacturer's manual. Briefly, the test was performed in the following sequence: the cell culture which was grown after treatment with the sample was dispensed into a 96-well plate in an amount of 50 μL/well, treated with Griess Reagent, reacted at room temperature for 10 minutes, and the absorbance was measured at 540 nm.
# [7] = oral once daily 7 days, control drug 5-ASA 200 mg/kg, listed as Control drug-treated Group
# [8] = 200 mg/kg oral once daily 5 days, control drug 5-ASA 200 mg/kg, listed as Control drug-treated Group
# [9] = 200 mg/kg oral once daily 5 days, control drug 5-ASA 200 mg/kg, listed as control-drug treated group
smiles,measurement,setting,value
"Nc1ccc(O)c(C(=O)O)c1 [5-ASA, 5-aminosalicylic acid]",Effect of inhibiting adhesion (%),[1],24.48%
same,inhibition at 20000 µM,"[1]; Homo sapiens, read-out: Effect of inhibiting adhesion (%)",18.9%
same,inhibition at 20000 µM,[2]; 5-ASA 20 mM,11.1%
same,Effect of inhibiting IL-6 (%),[3]; 5-ASA 20 mM,67.68% and 50.98%
same,Effect of inhibiting IL-6 (%),"[3]; 5-ASA 20 mM, listed as 5ASA",49.89% and 49.35%
same,inhibition at 20000 µM,"[3]; Macrophage, 5-ASA 20 mM, read-out: Effect of inhibiting IL-6 (%)",52.8%
same,effect of improvement of disease activity index compared to the colitis-induced group,[4],45%
same,increase of the colon length compared to the colitis-induced group,[4],3.6%
same,recovery of intestinal mucosa (immunostaining of intestinal mucosal tissues),[4],partially restored
same,Colon Length,[4]; [7],5.42 and 5.77 and 5.45 and 5.31 ± 0.16
same,Colon Length (cm),[4]; [7],5.42 cm and 5.31 ± 0.16 cm
same,DAI (disease activity index),[4]; [7],4.50 and 7.48 and 6.88 ± 0.44 and 5.75 and 5.33
same,Weight per Area (colon weight per colon length),[4]; [7],30.66 ± 0.76 and 32.52 and 31.42
same,reduction of weight of colon per colon length compared to the Crohn's disease-induced group,[5]; 200 mg/kg,almost no difference
same,Colon Length (cm),"[5]; 200 mg/kg oral once daily 5 days, control drug 5-ASA 200 mg/kg",8.33 ± 0.22 cm
same,Colon Length,[5]; [8],8.28 and 8.33 ± 0.22
same,DAI (disease activity index),[5]; [8],10.56 ± 1.40 and 8.20
same,Weight per Area (colon weight per colon length),[5]; [8],67.67 ± 9.30 and 46.55
same,Colon Length,[5]; [9],8.27
same,DAI (disease activity index),[5]; [9],6.30
same,Weight per Area (colon weight per colon length),[5]; [9],48.66
same,effect of improvement of disease activity index compared to the Crohn's disease-induced group,"[5]; 200 mg/kg, listed as Control drug-treated Group, 200 mg/kg",7% and 9%
same,difference in colon weight per colon length compared to the Crohn's disease-induced group,[5]; 5-ASA 200 mg/kg,about 6.5 mg/cm
same,decrease of MPO activity compared to the Crohn's disease-induced group,myeloperoxidase (MPO),15%
same,inhibitory effect against NO production,[6],37%
"C[C@@H]1C[C@H]2[C@@H]3CCC4=CC(=O)C=C[C@]4(C)[C@@]3(F)[C@@H](O)C[C@]2(C)[C@@]1(O)C(=O)CO [Dexamethasone, dexamethasone]",inhibition at 20 µM,[2]; dexamethasone 20 μM,38.5%
same,inhibition at 20 µM,"[3]; Macrophage, dexamethasone 20 μM, read-out: Effect of inhibiting IL-6 (%)",49.9%
